Laboratory results from patent publication US20260191815A1, “THIOACRYLAMIDE DERIVATIVES FOR USE IN THE PREVENTION OR TREATMENT OF LIVER FIBROSIS” (CMR CUREDIAB METABOLIC RESEARCH GMBH, priority 2022, published 2026).

Test system: CCl4-intoxicated C57BL/6J mice
Test: CCl4-induced liver fibrosis in mice, oral gavage once daily for 2 weeks
Assay type: in vivo, mouse
Experimental: C57BL/6J mice were housed in housing cages GM500 (500 cm^3) throughout the experimental phase. Animals' cages litters were changed at least once a week. They were housed in groups of 4 animals on a normal 12-hour light cycle (at 07:30 pm lights off), 22±2° C. and 55±10% relative humidity. Animals were acclimated for 5 days. During the whole phase standard diet (SAFE, Ref.: U8400G10R) and tap water were provided ad libitum.
After the acclimation period, mice were intoxicated with CCl4 i.p. twice weekly for 2 weeks to induce liver fibrosis. Body weight was recorded twice weekly for the 2-week intoxication period. After 2 weeks of CCl4 injection (~72 hours after the 4th injection of CCl4), mice were weighted and bled at ~08:00 am to collect blood (150 μL blood on heparin by retro-orbital bleeding under isoflurane anaesthesia) and measure plasma ALT and AST levels. Mice were then randomized into 2 homogenous groups (n=10/group) based on 1) ALT, 2) AST and 3) body weight.
Mice were treated by oral gavage once daily with vehicle or HK3 for 2 weeks (from day 0 to day 13). During this 2-week treatment period, CCl4 twice weekly i.p. injection was still performed until the end of the in-life phase. Body weight was recorded twice weekly, during the 2-week treatment period.
At the end of the treatment period (~48 hours after the last injection of CCl4), all mice were weighed and 3 h-fasted at ~10:00 am. The last dose of vehicle and test compound was administered at ~10:00 am, prior to blood collection (retro-orbital bleeding under isoflurane anesthesia for maximal volume/heparin) at ~1:00 pm. Plasma was isolated and immediately stored at −80° C.
Subsequently, the liver of each mouse was collected and weighted. Liver samples were dissected from the left lateral lobe for formalin-fixed paraffin-embedded samples for shipment for histology analysis (H&E and Sirius Red staining), % Sirius Red labelling and NAS scoring.
A total of 50 slides, each having a single hepatic lobe section stained with H&E (25) and Sirius red (25) were digitized using a Nanozoomer from Hamamatsu at Sciempath laboratory and posted on a secured digital slide server. They were downloaded and visualized using NDP viewer. Sections were evaluated with knowledge of groups but without knowledge of treatment. Each section was evaluated and individually scored.
A NAFLD scoring system (NAS), with which a total of four variables was qualitatively assessed and ranked with a score: (1) hepatocellular steatosis, (2) liver inflammation, (3) lobular fibrosis, and (4) hepatocyte ballooning.
An individual mouse NAS total score was calculated for each animal by summing up the score for (1) hepatocellular steatosis, (2) liver inflammation, (3) lobular fibrosis, and (4) hepatocyte ballooning. Whole-section histomorphometric measurements of positive area for Sirius Red were performed using computer-assisted image analysis on digitized sections. The histomorphometric measurements were generated with the software from Visiopharm (Denmark) using an automated approach. Analysis was performed on virtual whole sections at 20× magnification for morphometric evaluation. The pixel value at 20× magnification corresponded to 0.46 μm/pixel.
An algorithm was prepared for Sirius Red (SR) morphometric measurement on liver-stained sections. The algorithm was generated with the Bayesian linear segmentation tool in the software package, which was further refined through training on a subset of sections from 5 animals. Major histology section artefacts, as well as, large vascular empty spaces were automatically dissected and removed from area of interest (AOI) or detected positive area. Also, positive collagen from capsule and large vessels media layer was automatically excluded from SR positive area.
The total area analysed or AOI (mm2), the total SR positive area (mm2) and the percent “SR” area/total liver area analysed (%) were determined. […]

[1] = CCl4 mice, oral gavage once daily, 2 weeks

What does the source list for Cc1cc(NC(=S)/C(C#N)=C(\O)C2CC2)ccc1[N+](=O)[O-] [HK3, 2-Cyano-3-cyclopropyl-3-hydroxy-N-(3-methyl-4-nitro-phenyl)-thioacrylamide]?
percentage of Sirius Red labelling compared to baseline group (CCl4 mice, liver sections, p<0.01): significantly increased; percentage of Sirius Red labelling compared to the vehicle group (CCl4 mice, liver sections, p<0.05): significantly reduced; number of mice with a fibrosis score equal to 2 (CCl4 mice, n=10/group): 9 mice; number of mice with a fibrosis score equal to 3 (CCl4 mice, n=10/group): 1 mouse; body weight and body weight gain compared to vehicle treatment [1]: not altered; liver weight and relative liver weight compared to vehicle treatment [1]: did not change; plasma ALT and AST levels compared to vehicle treatment [1]: did not change; fibrosis score, treated group versus vehicle-treated group (CCl4 mice, p<0.05): significant difference; fibrosis score, treated group versus baseline group (CCl4 mice, baseline = CCl4 for two weeks only): no significant difference; TNF-α levels in liver homogenates compared to CCl4-treated group (combined administration with CCl4, p<0.05): slight but significant downregulation
